Assay results as given in patent US12441707B2, “Indazole compounds” (TYRA BIOSCIENCES, INC., priority 2019, dated 2025).
Read-outs that look alike come from different tables or passages of the source.

Experiments:
[1] = system: UM-UC-14 cells (Bladder Cancer, FGFR3(S249C)); test: UM-UC-14 cancer cell line cell viability assay (CellTiter-Glo 2.0); format: cell-based; conditions: UMUC14, 72 hours
Source text: (§1) Experimental Purpose: To detect the change of intracellular ATP by Cell Titer-Glo® and to evaluate the inhibitory effect of the compounds on cancer cell lines by determining the in vitro IC50 value of the compounds.
(§2) RT112/84 and KG-1 cell lines were purchased from American Type Culture Collection (Manassas, VA). UM-UC-14 cell line was purchased from Sigma (St. Louis, MO).

[2] = system: RT112/84 cells (Bladder Cancer, FGFR3-TACC3 fusion); test: RT112/84 cell viability assay (CellTiter-Glo 2.0); format: cell-based; conditions: Homo sapiens, 72 hours
Source text: Example B. RT112/84 Cell Viability Assay
RT112/84 cell line was purchased from American Type Culture Collection (Manassas, VA).
as §1, §2

[3] = system: KG-1 cells (Acute Myeloid Leukemia, FGFR1OP2-FGFR1 fusion); test: KG-1 cancer cell line cell viability assay (CellTiter-Glo 2.0); format: cell-based; conditions: Homo sapiens, 72 hours
Source text: as §1, §2

FGFR3 = FGFR3 (Homo sapiens (Human), UniProt P22607); test: Kinase binding assay (kinase-tagged T7 phage, liganded affinity beads, qPCR); conditions: binding constant; 0.9% DMSO
FGFR3, sequence (P22607 23-806): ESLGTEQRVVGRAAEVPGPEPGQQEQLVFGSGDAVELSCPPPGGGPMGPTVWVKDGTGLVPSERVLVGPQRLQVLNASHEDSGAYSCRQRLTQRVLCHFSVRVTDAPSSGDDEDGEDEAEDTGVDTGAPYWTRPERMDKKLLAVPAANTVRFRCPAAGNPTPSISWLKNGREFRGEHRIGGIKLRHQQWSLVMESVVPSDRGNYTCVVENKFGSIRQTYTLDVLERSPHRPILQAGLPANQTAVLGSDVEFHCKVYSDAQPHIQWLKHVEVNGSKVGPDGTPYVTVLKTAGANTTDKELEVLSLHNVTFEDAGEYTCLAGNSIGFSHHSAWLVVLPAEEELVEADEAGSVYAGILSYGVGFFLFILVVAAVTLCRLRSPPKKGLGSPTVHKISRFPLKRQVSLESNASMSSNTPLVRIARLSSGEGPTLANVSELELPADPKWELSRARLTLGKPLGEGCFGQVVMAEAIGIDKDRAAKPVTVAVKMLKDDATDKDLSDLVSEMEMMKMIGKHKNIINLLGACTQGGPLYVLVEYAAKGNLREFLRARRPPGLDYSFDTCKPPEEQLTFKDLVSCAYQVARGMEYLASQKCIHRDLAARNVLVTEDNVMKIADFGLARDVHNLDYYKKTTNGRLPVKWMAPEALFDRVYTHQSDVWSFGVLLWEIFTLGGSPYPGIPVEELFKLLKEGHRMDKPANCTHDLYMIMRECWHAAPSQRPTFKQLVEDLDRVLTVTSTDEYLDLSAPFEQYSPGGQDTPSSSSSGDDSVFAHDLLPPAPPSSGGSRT

FGFR1 = FGFR1 (Homo sapiens (Human), UniProt P11362); test: as above; conditions: binding constant; 0.9% DMSO
FGFR1, sequence (P11362 22-822): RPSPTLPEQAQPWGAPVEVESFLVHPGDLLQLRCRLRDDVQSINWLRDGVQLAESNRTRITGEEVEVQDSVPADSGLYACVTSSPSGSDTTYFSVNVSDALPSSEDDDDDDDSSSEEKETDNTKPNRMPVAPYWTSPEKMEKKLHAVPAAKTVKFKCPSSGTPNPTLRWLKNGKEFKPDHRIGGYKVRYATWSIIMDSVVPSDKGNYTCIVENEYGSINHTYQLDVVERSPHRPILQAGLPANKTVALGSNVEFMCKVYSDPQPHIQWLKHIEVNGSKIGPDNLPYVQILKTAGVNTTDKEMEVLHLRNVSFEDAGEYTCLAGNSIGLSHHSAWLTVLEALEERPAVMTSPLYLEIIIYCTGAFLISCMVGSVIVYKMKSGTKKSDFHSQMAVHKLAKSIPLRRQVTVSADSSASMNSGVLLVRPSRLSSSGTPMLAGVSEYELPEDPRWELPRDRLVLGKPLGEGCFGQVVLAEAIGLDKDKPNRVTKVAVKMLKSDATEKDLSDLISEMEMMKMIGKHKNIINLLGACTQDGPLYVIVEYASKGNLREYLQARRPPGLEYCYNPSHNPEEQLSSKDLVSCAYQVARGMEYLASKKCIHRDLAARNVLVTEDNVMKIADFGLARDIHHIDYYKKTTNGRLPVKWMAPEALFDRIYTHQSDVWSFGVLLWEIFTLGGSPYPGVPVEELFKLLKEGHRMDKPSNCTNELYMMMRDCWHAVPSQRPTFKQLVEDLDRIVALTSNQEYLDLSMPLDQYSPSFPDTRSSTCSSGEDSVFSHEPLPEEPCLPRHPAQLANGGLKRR

FGFR2 [4] = target: T1, FGFR2 (Homo sapiens (Human), UniProt P21802); test: biochemical
T1 sequence (P21802 22-821): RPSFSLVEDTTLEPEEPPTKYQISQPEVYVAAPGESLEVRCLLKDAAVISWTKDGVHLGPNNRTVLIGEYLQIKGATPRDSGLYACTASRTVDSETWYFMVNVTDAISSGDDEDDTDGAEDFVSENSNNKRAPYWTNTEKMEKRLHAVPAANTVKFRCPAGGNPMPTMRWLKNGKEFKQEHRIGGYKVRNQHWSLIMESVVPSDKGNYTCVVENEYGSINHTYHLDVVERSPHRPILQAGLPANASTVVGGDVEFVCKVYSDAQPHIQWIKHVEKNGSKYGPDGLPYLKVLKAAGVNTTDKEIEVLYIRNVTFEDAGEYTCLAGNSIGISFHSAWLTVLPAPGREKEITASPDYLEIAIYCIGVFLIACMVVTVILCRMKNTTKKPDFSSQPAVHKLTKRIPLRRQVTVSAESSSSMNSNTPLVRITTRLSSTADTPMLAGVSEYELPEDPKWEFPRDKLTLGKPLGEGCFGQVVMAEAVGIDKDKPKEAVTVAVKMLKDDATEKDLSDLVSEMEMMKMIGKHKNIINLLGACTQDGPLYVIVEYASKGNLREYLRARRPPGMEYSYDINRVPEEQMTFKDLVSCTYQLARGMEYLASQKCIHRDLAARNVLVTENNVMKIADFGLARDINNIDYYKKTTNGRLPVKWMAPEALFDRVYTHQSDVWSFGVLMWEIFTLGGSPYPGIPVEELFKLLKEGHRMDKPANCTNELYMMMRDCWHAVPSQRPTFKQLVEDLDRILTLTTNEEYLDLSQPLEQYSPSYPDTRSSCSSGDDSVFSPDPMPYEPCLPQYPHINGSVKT

FGFR2 [5] = target: T1, FGFR2
[6] = target: FGFR3-BAIAP2L1 Ba/F3 cells
FGFR3-BAIAP2L1 Ba/F3 cells, sequence (P22607 23-806 limits assumed, change not shown): as the sequence (P22607 23-806) above

Structure (SMILES)	IC50 [1] [nM]	IC50 [2] [nM]	IC50 [3] [nM]	further results
Cc1ncc(Cl)c([C@@H](C)Oc2ccc3[nH]nc(-c4ccc(N=S(C)(C)=O)nc4)c3c2)c1Cl [Example 30, [5-[5-[(1R)-1-(3,5-dichloro-2-methyl-4-pyridyl)ethoxy]-1H-indazol-3-yl]-2-pyridyl]imino-dimethyl-oxo-λ^6-sulfane]	47	38		
C[C@@H](Oc1ccc2[nH]nc(-c3ccc(N=S4(=O)CCCC4)nc3)c2c1)c1c(Cl)cncc1Cl [Example 32, 1-[[5-[5-[(1R)-1-(3,5-Dichloro-4-pyridyl)ethoxy]-1H-indazol-3-yl]-2-pyridyl]imino]thiolane 1-oxide]				Kd (FGFR3): 1.9 nM; Kd (FGFR1): 14 nM; Kd (FGFR2 [4]): 0.015 µM
CC(Oc1ccc2[nH]nc(-c3cccc(S(C)(=N)=O)c3)c2c1)c1c(Cl)cncc1Cl (stereo not shown) [Example 2, (3-(5-(1-(3,5-Dichloropyridin-4-yl)ethoxy)-1H-indazol-3-yl)phenyl)(imino) (methyl)-λ^6-6-sulfanone]				Kd (FGFR3): 120 nM; Kd (FGFR1): 1200 nM; Kd (FGFR2 [5]): 0.4 µM
CC(Oc1ccc2[nH]nc(C(=O)Nc3ccc(S(C)(=N)=O)nc3)c2c1)c1c(Cl)cncc1Cl (stereo not shown) [Example 6, 5-(1-(3,5-Dichloropyridin-4-yl)ethoxy)-N-(6-(S-methylsulfonimidoyl)pyridine-3-yl)-1H-indazole-3-carboxamide]				Kd (FGFR3): 47 nM; Kd (FGFR1): 260 nM; Kd (FGFR2 [5]): 0.12 µM
CC(Oc1ccc2[nH]nc(-c3cccc(N=S(C)(C)=O)c3)c2c1)c1c(Cl)cncc1Cl (stereo not shown) [Example 1, [3-[5-[1-(3,5-dichloro-4-pyridyl)ethoxy]-1H-indazol-3-yl]phenyl]imino-dimethyl-oxo-λ^6-sulfane]				Kd (FGFR3): 76 nM; Kd (FGFR1): 770 nM; Kd (FGFR2 [4]): 0.55 µM
C[C@@H](Oc1ccc2[nH]nc(-c3ccc(S(C)(=N)=O)nc3)c2c1)c1c(Cl)cncc1Cl (stereo partly drawn) [Example 28, [5-[5-[(1R)-1-(3,5-dichloro-4-pyridyl)ethoxy]-1H-indazol-3-yl]-2-pyridyl]-imino-methyl-oxo-λ^6-sulfane]	44	28		
C[C@@H](Oc1ccc2[nH]nc(NC(=O)c3ccc(N=S(C)(C)=O)nc3)c2c1)c1c(Cl)cncc1Cl [Example 19, (R)—N-(5-(1-(3,5-Dichloropyridin-4-yl)ethoxy)-1H-indazol-3-yl)-6-((dimethyl(oxo)-λ^6-sulfaneylidene)amino)nicotinamide]		39		
C[C@@H](Oc1ccc2[nH]nc(-c3cnc(N=S(C)(C)=O)nc3)c2c1)c1c(Cl)cncc1Cl [Example 26, [5-[5-[(1R)-1-(3,5-dichloro-4-pyridyl)ethoxy]-1H-indazol-3-yl]pyrimidin-2-yl]imino-dimethyl-oxo-λ^6-sulfane]	29	22	123	IC50 [6]: 0.018 µM
C[C@@H](Oc1ccc2[nH]nc(/C=C/c3ccc(N=S(C)(C)=O)nc3)c2c1)c1c(Cl)cncc1Cl [Example 3]		20	0.4	
C[C@H](Oc1ccc2[nH]nc(-c3ccc(N4CCS(=N)(=O)CC4)cc3)c2c1)c1c(Cl)cncc1Cl [Example 14, (S)-4-(4-(5-(1-(3,5-Dichloropyridin-4-yl)ethoxy)-1H-indazol-3-yl)phenyl)-1-imino-1λ^6-thiomorpholine 1-oxide]		75		

More lines, in order of falling IC50 [2], values ahead:

IC50 [1] [nM]	IC50 [2] [nM]	IC50 [3] [nM]	Structure (SMILES)	further results
	16		C[C@@H](Oc1ccc2[nH]nc(-c3ccc(N4CCS(=N)(=O)CC4)cc3)c2c1)c1c(Cl)cncc1Cl [Example 13, (R)-4-(4-(5-(1-(3,5-Dichloropyridin-4-yl)ethoxy)-1H-indazol-3-yl)phenyl)-1-imino-1λ^6-thiomorpholine 1-oxide]	
19	14	81	C[C@@H](Oc1ccc2[nH]nc(-c3cnc(N=S(C)(C)=O)c(F)c3)c2c1)c1c(Cl)cncc1Cl [Example 25, [5-[5-[(1R)-1-(3,5-dichloro-4-pyridyl)ethoxy]-1H-indazol-3-yl]-3-fluoro-2-pyridyl]imino-dimethyl-oxo-λ^6-sulfane]	
19	11	103	C[C@@H](Oc1ccc2[nH]nc(-c3ccc(N=S(C)(C)=O)nc3)c2c1)c1c(Cl)cncc1Cl [Example 21, (R)-((5-(5-(1-(3,5-Dichloropyridin-4-yl)ethoxy)-1H-indazol-3-yl)pyridin-2-yl)imino)dimethyl-λ^6-sulfanone]	
12	8.4	169	CN=S1(=O)CCN(c2ccc(-c3n[nH]c4ccc(O[C@H](C)c5c(Cl)cncc5Cl)cc34)cn2)CC1 [Example 24, 4-[5-[5-[(1R)-1-(3,5-dichloro-4-pyridyl)ethoxy]-1H-indazol-3-yl]-2-pyridyl]-1-methylimino-1,4-thiazinane 1-oxide]	
5.9	4.3	45	C[C@@H](Oc1ccc2[nH]nc(-c3ccc(N4CCS(=N)(=O)CC4)nc3)c2c1)c1c(Cl)cncc1Cl [Example 12, (R)-4-(5-(5-(1-(3,5-Dichloropyridin-4-yl)ethoxy)-1H-indazol-3-yl)pyridin-2-yl)-1-imino-1λ^6-thiomorpholine 1-oxide]	
